Legend:
[1] = exposure to conditions mimicking the pH of the gut (beta hydroxy dehydration at low pH); format: physicochemical; conditions: for dehydration of exposed beta hydroxy groups relative to the salts or free acid of β-hydroxybutyrate: low pH conditions
From the text: The present invention generally relates to means of protecting or stabilizing the beta hydroxy group in β-hydroxybutyrate in order to prevent beta hydroxy dehydration in the presence of strong acid, such as found in the stomach. That reaction is a type of gastric degradation which yield compounds with no known metabolic therapy. […] Stabilizing the beta hydroxy group is possible by replacing the carboxylic acid functional group with an ester functional group, which prevents resonance between the two oxygen atoms by hydrogen and considerably stabilizes the beta hydroxy group reducing dehydration by as much as 40% compared to salts and the free acid of β-hydroxybutyrate. Protecting the beta hydroxy group is defined by replacing the beta hydroxy group with a second molecule of β-hydroxybutyrate forming an ester bond at the previous beta hydroxy functional group and yielding a dimer ester (DE) of β-hydroxybutyrate. Further described herein are similar therapeutic agents, compositions, and production processes thereof. […] The Dimer Esters protecting the beta hydroxy group are far less susceptible than any other identified compound to dehydration because only one beta hydroxy group is exposed of the two effective molecules of β-hydroxybutyrate This is disclosed in the prior art providing room for more advantageous compounds and formulations thereof as described herein. A third experiment was carried out exposing the salts and KME to conditions mimicking the pH of the gut.

[2] = healthy resting adults; cited from earlier work

Structure (SMILES): C[C@@H](O)CCOC(=O)C[C@@H](C)O [KME, (3R)-hydroxybutyl (3R)-hydroxybutyrate]
- dehydration of exposed beta hydroxy groups relative to the salts or free acid of β-hydroxybutyrate [1]: dehydrate to a far lesser extent
- dehydration on exposure to conditions mimicking the pH of the gut ([1]; third experiment, yields undesirable products): Rapid dehydration was observed

Structure (SMILES): CC(CCO)OC(=O)C[C@@H](C)O (stereo partly shown) [SKE]
- dehydration of exposed beta hydroxy groups relative to the salts or free acid of β-hydroxybutyrate [1]: dehydrate to a far lesser extent

Structure (SMILES): CC(O)CC(=O)O (stereo not drawn) [beta hydroxybutyrate]
- increase of myocardial output [2]: 50%

— patent publication US20200385331A1, “ALTERNATIVE KETONE ESTERS AND PRODUCTION PROCESSES THEREOF” (KetoneAid Inc., priority 2018, published 2020)
